Measurements as given in patent US12370214B2, “Combined pharmaceutical formulation comprising drug-containing liposome composition and platinum preparation” (FUJIFILM Corporation, priority 2018, dated 2025).

Key:
A2780 cells [1] = assay: Drug efficacy test with combined use of platinum preparation in tumor-bearing mouse model with subcutaneous transplantation of A2780 (carboplatin, Lipo, topotecan); type: in vivo, mice; conditions: for Median survival time: from start of drug administration, carboplatin 80 mg/kg ip, Lipo 0.5 mg/kg tail vein once a week x 2, topotecan 0.5 mg/kg tail vein once a day x 5, carboplatin once in the topotecan combination; for Number of animal deaths or euthanasias due to deterioration of condition: of 8 animals in group, same doses and schedules as median survival
Text: A platinum preparation (hereinafter, also referred to as carboplatin), the topotecan-containing liposome composition according to the embodiment of the present invention, and topotecan were used as test substances. Physiological saline (available from Otsuka Pharmaceutical Factory, Inc., hereinafter, also referred to as carboplatin solvent) was used for the dilution of carboplatin and topotecan. A 5% Otsuka glucose solution (available from Otsuka Pharmaceutical Factory, Inc., hereinafter, also referred to as Lipo solvent) was used for the dilution of Lipo.
(§1) 5×10^6 A2780 cells, which is a human ovarian cancer cell line, were subcutaneously transplanted into the flank of female BALB/cAJcl-nu/nu mice to form subcutaneous tumors. From 7 days after transplantation, mice were drug treated with carboplatin alone, Lipo of the present invention alone, topotecan alone, a combination of carboplatin and Lipo, and a combination of carboplatin and topotecan, and the effect of the drug treatment on the survival time of the mice was evaluated. In a case where a volume of tumor reached 2,000 mm^3 or in a case where significant deterioration of the condition was observed, the animals were euthanized and considered dead.
In the combination group of a carboplatin solvent and a Lipo solvent, the carboplatin solvent was administered by intraperitoneal administration, and the Lipo solvent was administered by tail vein administration once a week for 2 weeks. The carboplatin alone group was administered by intraperitoneal administration once a week for 2 weeks. The Lipo alone group was administered by tail vein administration once a week for 2 weeks. In the combination group of carboplatin and Lipo, carboplatin was administered by intraperitoneal administration once a week for 2 weeks, and Lipo was administered by tail vein administration once a week for 2 weeks. In the combination group of carboplatin and topotecan, carboplatin was administered as a single dose by intraperitoneal administration, and topotecan was administered by tail vein administration once a day for 5 days.
Groups 1 to 4 and 6 correspond to Comparative Examples, and Group 5 corresponds to Example. In Table 5, “Lipo” represents the topotecan-containing liposome composition according to the embodiment of the present invention, “Abdomen” represents intraperitoneal administration, “Tail” represents tail vein administration, “Once a week×2” represents once a week for 2 weeks, “Once a day×5” represents administration once a day for 5 days, and “Once” represents administration once during the test period.

A2780 cells [2] = assay: Drug efficacy test with combined use of platinum preparation in tumor-bearing mouse model with subcutaneous transplantation of A2780 (carboplatin, Lipo, paclitaxel); type: in vivo, mice
Protocol: A platinum preparation (hereinafter, also referred to as carboplatin), the topotecan-containing liposome composition according to the embodiment of the present invention, and paclitaxel were used as test substances. Physiological saline (available from Otsuka Pharmaceutical Factory, Inc., hereinafter, also referred to as carboplatin solvent) was used for the dilution of carboplatin. A 10 mM histidine/9.4% sucrose solution (hereinafter, also referred to as Lipo solvent) was used for the dilution of Lipo. 12.5% CREMOPHOR (available from Sigma-Aldrich, LLC)/12.5% ethanol (available from Shonan Wako Junyaku K.K.)/75% physiological saline (available from Otsuka Pharmaceutical Factory, Inc.) was used for the dilution of paclitaxel.
as §1, with “alone,” for “alone, topotecan alone,”, “paclitaxel,” for “topotecan,”, “dead. […]” for “dead.”

Row | Structure (SMILES) | Median survival time (A2780 cells [1]) | Number of animal deaths or euthanasias due to deterioration of condition (A2780 cells [1]) | Median survival time (A2780 cells [2]; from start of drug administration, carboplatin 80 mg/kg ip, Lipo 0.5 mg/kg tail vein, paclitaxel 20 mg/kg tail vein, single agents once a week x 2, combinations once) | Number of animal deaths or euthanasias due to deterioration of condition (A2780 cells [2]; of 8 animals in group, same doses and schedules as median survival)
1 | N.N.O=C([O-])C1(C(=O)[O-])CCC1.[Pt+2] [Carboplatin, carboplatin] | 9.1 days | 0 | 10 days | 1
2 | CC[C@@]1(O)C(=O)OCc2c1cc1n(c2=O)Cc2cc3c(CN(C)C)c(O)ccc3nc2-1 [Topotecan, topotecan] | 12.9 days | 0 |  | 
